Values after ≈ are worked out from the molar mass of the structure shown. Read-outs that look alike come from different tables or passages of the source.
Experiments:
[1] = target: Mtb Pks13-TE domain (wild-type) (Mycobacterium tuberculosis, UniProt I6X8D2); assay: biochemical; type: biochemical
[2] = test system: human dermal fibroblast (HDF) cells; settings: for Non-Toxic Concentration: human, 48 h
Mtb strain mc^27000 = assay: microbe, parasite or virus in culture; type: cell-based, Mycobacterium tuberculosis
[3] = Mtb Pks13-TE domain, mean ± s.d. of triplicates, read-out: IC50
[4] = Pks13-TE, 20 μM 4-MUH, read-out: IC50
[5] = Mtb mc^27000, liquid medium, 96-well plates
[6] = […], mean ± s.d. of triplicates, NI: no inhibition
[7] = Mtb mc^27000, liquid medium, 96-well plates, read-out: MIC
[8] = Mycobacterium tuberculosis, Mtb mc^27000, liquid medium, 96-well plates, read-out: MIC
[9] = Mycobacterium tuberculosis, […], mean ± s.d. of triplicates, NI: no inhibition, read-out: MIC
[10] = Pks13 enzyme inhibition, read-out: Pks13 IC50
[11] = HDF cell survival relative to DMSO-only control at the first (or only) Non-Toxic Concentration value
[12] = HDF cell survival relative to DMSO-only control at the second Non-Toxic Concentration value
[13] = Mycobacterium tuberculosis, read-out: Pks13 MIC

Chain of Mtb Pks13-TE domain (wild-type) (I6X8D2 1451-1733): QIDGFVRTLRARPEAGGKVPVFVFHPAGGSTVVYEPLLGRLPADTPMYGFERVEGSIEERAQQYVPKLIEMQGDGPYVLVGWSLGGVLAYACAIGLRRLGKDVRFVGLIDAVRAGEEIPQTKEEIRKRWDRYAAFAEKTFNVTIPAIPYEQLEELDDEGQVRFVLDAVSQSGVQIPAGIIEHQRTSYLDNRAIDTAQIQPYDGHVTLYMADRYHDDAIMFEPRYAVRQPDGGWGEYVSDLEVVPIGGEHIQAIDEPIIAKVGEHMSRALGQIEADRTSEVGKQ

SMILES	IC50 [1, 4] [nM]	MIC (Mtb strain mc^27000; [8]) [µM]	IC50 [1, 10] [nM]	Survival vs. Control [2, 11] [%]	MIC (Mtb strain mc^27000; [13]) [µM]	Non-Toxic Concentration [2] [µM]	also measured
CCOC(=O)c1c(-c2ccccc2)oc2ccc(O)c(CN3CCCC(C)C3)c12 (centres unmarked) [compound 2]	120	–	–	–	–	–	IC50 [1, 3]: 120 ± 20 nM; growth inhibition in HDF cells relative to DMSO only control ([2]; up to 40 (unit not given)): did not show any growth inhibition; higher MIC compared to the test compound (Mtb strain mc^27000): ~2 fold; MIC (Mtb strain mc^27000; [5]): 4.4 ± 0.2 µM (≈ 1.73 µg/mL); MIC (Mtb strain mc^27000; [6]): 4.4 ± 0.2 µM (≈ 1.73 µg/mL)
CCOC(=O)c1c(-c2ccccc2)oc2ccc(O)c(CN3CCCC3)c12 [compound 3]	240 ± 20	–	–	–	–	–	IC50 [1, 3]: 240 ± 20 nM; IC50 ([2]; read-out: half-maximum inhibitory concentration in HDF cells, HDF cells, resazurin): > 15000 nM; higher MIC compared to the test compound (Mtb strain mc^27000): ~2 fold; MIC (Mtb strain mc^27000; [7]): 4.1 µM (≈ 1.5 µg/mL); MIC (Mtb strain mc^27000; [6]): 4.1 ± 0.1 µM (≈ 1.5 µg/mL)
CCOC(=O)c1c(-c2ccccc2)oc2ccc(O)c(CN3CCCCCC3)c12 [compound 4]	280 ± 30	4.6 ± 0.3 (≈ 1.81 µg/mL)	–	–	–	–	IC50 [1, 3]: 280 ± 30 nM; growth inhibition in HDF cells relative to DMSO only control [2]: did not show any growth inhibition; higher MIC compared to the test compound (Mtb strain mc^27000): ~2 fold; MIC (Mtb strain mc^27000; [9]): 4.6 ± 0.03 µM (≈ 1.81 µg/mL)
CCOC(=O)c1c(-c2ccccc2)oc2ccc(O)c(CN3CCOCC3)c12 [compound 5]	710	–	–	–	–	–	IC50 [1, 3]: 710 ± 50 nM; IC50 value lower than compound F against Pks13-TE ([1]; relative to compound F): > 2 fold; loss of inhibitory activity / higher IC50 against Pks13-TE compared to the test compound ([1]; relative to test compound): ~3 fold; growth inhibition in HDF cells relative to DMSO only control ([2]; up to 40 (unit not given)): did not show any growth inhibition; higher MIC compared to the test compound (Mtb strain mc^27000): 6 fold; MIC (Mtb strain mc^27000; [5]): 13.3 ± 1.6 µM (≈ 5.07 µg/mL); MIC (Mtb strain mc^27000; [6]): 13.3 ± 1.6 µM (≈ 5.07 µg/mL); MIC higher than compound F in whole cell testing (Mtb strain mc^27000; relative to compound F): ~2 fold
Oc1ccc2[nH]c(-c3ccccc3)nc2c1CN1CCCCC1 [compound 8]	6800	22 (≈ 6.76 µg/mL)	6800	78	22 (≈ 6.76 µg/mL)	–	Survival vs. Control [2, 12]: 94%
CCOC(=O)c1c(-c2ccccc2)oc2ccc(O)c(CN3CCCCC3)c12 [compound 13]	300	0.4 (≈ 0.152 µg/mL)	260	105	0.4 (≈ 0.152 µg/mL)	50	growth inhibition in HDF cells relative to DMSO only control [2]: did not show any growth inhibition; MIC (Mtb strain mc^27000; [9]): 0.4 µM (≈ 0.152 µg/mL)
CCOC(=O)c1c(-c2ccc(OC)cc2)oc2ccc(O)c(CN3CCCCC3)c12 [compound 21]	290	2.6 (≈ 1.06 µg/mL)	290	104	2.6 (≈ 1.06 µg/mL)	50	–
CCOC(=O)c1c(-c2ccccc2)oc2cc(N)c(O)c(CN3CCCCC3)c12 [compound 27]	370	8 (≈ 3.16 µg/mL)	370	77	8 (≈ 3.16 µg/mL)	–	Survival vs. Control [2, 12]: 114%
CNC(=O)c1c(-c2ccc(F)cc2)oc2ccc(O)c(CN3CCCCC3)c12 [compound 29]	300	4.5 (≈ 1.72 µg/mL)	300	89	4.5 (≈ 1.72 µg/mL)	–	Survival vs. Control [2, 12]: 112%
CCOC(=O)c1c(-c2ccccc2)oc2cc(N)cc(CN3CCCCC3)c12 [compound 34]	4500	9.2 (≈ 3.48 µg/mL)	4500	82	9.2 (≈ 3.48 µg/mL)	100	–
CCOC(=O)c1c(-c2ccccc2)oc2cc(O)cc(CN3CCCCC3)c12 [compound 38]	–	6.7 (≈ 2.54 µg/mL)	450	111	6.7 (≈ 2.54 µg/mL)	100	–
CC(C)(C)OC(=O)N1CCN(C(=O)c2c(-c3ccccc3)oc3ccc(O)c(CN4CCCCC4)c23)CC1 [compound 39]	660	2.1 (≈ 1.09 µg/mL)	660	101	2.1 (≈ 1.09 µg/mL)	100	–
CNC(=O)c1c(-c2ccccc2)oc2cc(O)cc(CN3CCCCC3)c12 [compound 40]	600	20 (≈ 7.29 µg/mL)	600	101	20 (≈ 7.29 µg/mL)	100	–
O=C(c1c(-c2ccccc2)oc2ccc(O)c(CN3CCCCC3)c12)N1CCNCC1 [compound 41]	440	20 (≈ 8.39 µg/mL)	740	100	3.1 (≈ 1.3 µg/mL)	100	–
O=C(c1c(-c2ccccc2)oc2ccc(O)c(CN3CCCCC3)c12)N1CCCCC1 [compound 42]	740	–	320	89	> 10	100	MIC (Mtb strain mc^27000; [7]): 3.1 µM (≈ 1.3 µg/mL)
CC(=O)NCCNC(=O)c1c(-c2ccccc2)oc2ccc(O)c(CN3CCCCC3)c12 [compound 44]	500	> 40	500	104	> 40	50	–
CCOC(=O)c1c(-c2ccc(O)cc2)oc2cc(O)cc(CN3CCCCC3)c12 [compound 45]	440	1.1 (≈ 0.435 µg/mL)	440	89	1.1 (≈ 0.435 µg/mL)	100	–
CCOC(=O)c1c(-c2ccc(O)nc2)oc2ccc(O)c(CN3CCCCC3)c12 [compound 58]	–	4 (≈ 1.59 µg/mL)	360	95	4 (≈ 1.59 µg/mL)	50	–
CNC(=O)c1c(-c2ccc(O)c(F)c2)oc2ccc(O)c(CN3CCCCC3)c12 [compound 61]	–	0.5 (≈ 0.199 µg/mL)	330	94	0.5 (≈ 0.199 µg/mL)	50	–
CCOC(=O)c1c(-c2ccc(C#N)cc2)oc2ccc(O)c(CN3CCCCC3)c12 [compound 62]	270	1.5 (≈ 0.607 µg/mL)	270	90	1.5 (≈ 0.607 µg/mL)	6.25	–
CCOC(=O)c1c(-c2ccc(F)cc2)oc2cc(O)cc(CCNS(C)(=O)=O)c12 [compound 74]	–	–	20000	88	–	25	–
CCOC(=O)c1c(-c2ccccc2)oc2ccc(O)c(CCCN3CC[C@H]3CO)c12 [compound 213]	2300	–	–	–	–	–	MIC (Mtb strain mc^27000; [7]): 0.97 µM (≈ 0.397 µg/mL)
CCOC(=O)c1c(-c2ccccc2)oc2ccc(O)c(CCN3CCC(C#N)CC3)c12 [compound 228]	3600	5 (≈ 2.09 µg/mL)	–	–	–	–	–
CCOC(=O)c1c(-c2ccccc2)oc2ccc(O)c(CCN3CCOCC3)c12 [compound 229]	5800	3.2 (≈ 1.27 µg/mL)	–	–	–	–	–
CNC(=O)c1c(-c2ccccc2)oc2ccc(O)c(CCN3CC[C@H](Br)C3)c12 [compound 231]	5000	8 (≈ 3.55 µg/mL)	–	–	–	–	–
CC[C@H](CO)NCCc1c(O)ccc2oc(-c3ccccc3)c(C(=O)NC)c12 [compound 234]	5300	> 20	–	–	–	–	–
CC[C@@H](CO)NCCc1c(O)ccc2oc(-c3ccccc3)c(C(=O)NC)c12 [compound 235]	2300	> 40	–	–	–	–	–
CCOC(=O)c1c(-c2ccccc2)oc2ccc(O)c(CCN3CCCC3C(=O)O)c12 (centres unmarked) [compound 244]	> 40000	20 to 40 (≈ 8.47 to 16.9 µg/mL)	–	–	–	–	–
CCOC(=O)c1c(-c2ccccc2)oc2ccc(O)c(CCN[C@@H](Cc3c[nH]cn3)C(=O)O)c12 [compound 245]	2700	> 40	–	–	–	–	–
CNC(=O)c1c(-c2ccc(F)cc2)oc2cc(O)cc(CCN[C@H](CO)Cc3cnc[nH]3)c12 [compound 261]	5000	5 (≈ 2.26 µg/mL)	–	–	–	–	–

From US20180111913A1, “SUBSTITUTED BENZOFURAN DERIVATIVES AS NOVEL ANTIMYCOBACTERIAL AGENTS” (priority 2015, published 2018)
